Measurements taken from US20180200233A1, “COMPOSITIONS FOR PREVENTING CANCERS ASSOCIATED WITH HUMAN PAPILLOMA VIRUSES” (Loma Linda University, priority 2015, published 2018).

Assays:
[1] = tested on: SCC84 (#84) cells; assay: MTT cell viability, HPV- HNSCC cell line #84 with TRAIL; format: cell-based; settings: 50 ng/ml TRAIL with myricetin 0-200 μM or spinacine 0-100 μM
Procedure: FIGS. 7A-E are graphs showing myricetin and spinacine (5) re-sensitized HPV^+, but not HPV^−, head and neck cancer cell lines to treatment with TRAIL. (FIG. 7A) Both HPV^− and HPV^+ HN cancer cell lines display resistance to TRAIL treatment. HPV^− (#84) (Myricetin—FIG. 7B; Spinacine—FIG. 7C) and HPV^+ (#90) (FIG. 7D; Spinacine—FIG. 7E) head and neck cancer cell lines (2×10^4 cells per well) were seeded into 96-well plates and allowed to incubate overnight, then cells were pre-treated with myricetin (0-200 μM) or spinacine (0-100 μM) for 4 h. […] Cell viability was measured by the MTT assay, and the viability of cells untreated with small molecules was set at 100%. Experiments were performed in triplicate, and error bars indicate the standard deviation.
As shown above, myricetin and spinacine sensitize SiHa cells to TRAIL and chemotherapy drugs. […] Other types of HPV^+ cancer cells were examined, and in particular, head and neck squamous cell carcinoma (HNSCC) cells can also be sensitized in this manner. […]
The extracellular domain of human TRAIL was cloned into a pTriEx expression plasmid containing N-terminal Hisx6 tag. […] All experiments were repeated at least three times (three biological replicates, carried out on different days), with each experimental group measured in triplicate within each of these individual experiments. […]

[2] = tested on: SiHa cells; assay: in vitro; format: cell-based, human
Procedure: FIGS. 3A-E are graphs providing data regarding resistance of HPV^+ SiHa cells to TRAIL-, cisplatin- and […] apoptosis, in the presence and absence of small molecules as disclosed herein. (FIG. 3A) HPV^+ SiHa cells are resistant to TRAIL-induced apoptosis as compared to the human osteosarcoma cell line U2OS. Cells (2×10^4 cells per well) were seeded into a 96-well plate, allowed to incubate overnight, and then treated with indicated concentration of TRAIL in the presence of cycloheximide (5 μg/ml). The viability of cells was measured after overnight incubation using the MTT assay; the viability of cells untreated with TRAIL was set at 100% for each group. (FIG. 3B) The indicated concentrations of three small molecules were added to SiHa cells, and an MTT assay was preformed after overnight incubation. The viability of cells untreated with small molecules was set as 100%. (FIG. 3C) The indicated concentrations of myricetin or spinacine were added 4 h prior to TRAIL (100 ng/ml) in the presence of cycloheximide (5 μg/ml) and incubated at 37° C. overnight. The viability of cells untreated with small molecules was set at 100%. (FIG. 3D and FIG. 3E) SiHa cells (2×10^4 cells per well) were seeded into a 96-well plate and allowed to incubate overnight. 100 μM of myricetin and 50 μM of spinacine were added 4 h prior to either (FIG. 3D) doxorubicin or (FIG. 3E) cisplatin. Cell viability was measured after overnight incubation using the MTT assay, and the viability of cells untreated with either myricetin or spinacine was set at 100%. Experiments were performed in triplicate, and error bars indicate the standard deviation.
The molecules were then tested to determine whether those that block E6/caspase 8 binding in vitro could also act in the context of a cell. SiHa cells are an HPV^+ cell line, derived from a cervical carcinoma, which serves as a commonly used model for HPV-associated malignancies. To determine whether HPV^+ SiHa cells are resistant to TRAIL-induced apoptosis, SiHa cells were treated with TRAIL and cell viability was assessed. TRAIL-sensitive, HPV^− U2OS cells served as a positive control. […] Myricetin and/or spinacine were tested to determine if they could sensitize these HPV^+ cells to TRAIL-induced apoptosis. […] Table 2 lists and compares the concentrations of the three tested compounds required to induce death in 50% of SiHa cells in the presence or absence of TRAIL.
The extracellular domain of human TRAIL was cloned into a pTriEx expression plasmid containing N-terminal Hisx6 tag. His-TRAIL was expressed in the E. coli BL-21 pLys strain and purified as previously described. Doxorubicin and cisplatin were purchased from Sigma. His-TRAIL, doxorubicin, and cisplatin were diluted in PBS to the desired concentration before using. To measure cell survival following treatment with TRAIL, cisplatin and doxorubicin, SiHa (2×10^4/well), C33A (1×10^4/well), and HNSCC cells (2×10^4/well) were seeded into 96-well plates and allowed to adhere overnight. Small molecules at the desired concentration were added and incubated at 37° C. for 4 h. As indicated, TRAIL, cisplatin or doxorubicin was then added. […] All experiments were repeated at least three times (three biological replicates, carried out on different days), with each experimental group measured in triplicate within each of these individual experiments. […]

[3] = tested on: SCC 84 (#84) cells; assay: MTT cell viability, HPV- HNSCC cell line #84 with doxorubicin; format: cell-based; settings: 2 μM doxorubicin; small molecules 0-12.5 μM
Procedure: FIGS. 8A-B includes graphs showing myricetin and spinacine (5) re-sensitized HPV^+, but not HPV^−, HNSCC cell lines to treatment with doxorubicin. One HPV^− (FIG. 8A; #84) and one HPV^+ (FIG. 8B; #90) head and neck cancer cell line (2×10^4 cells per well) were seeded into 96-well plates and allowed to incubate overnight, then cells were pre-treated with myricetin or spinacine (0-12.5 μM) for 4 h. 2 μM of doxorubicin was added and cells were allowed to incubate overnight. Cell viability was measured by MTT assay, and the viability of cells untreated with small molecules was set at 100%. Experiments were performed in triplicate, and error bars indicate the standard deviation.
The results described above indicate that myricetin and spinacine sensitize HPV^+ HNSCC cells to TRAIL-induced apoptosis. To determine whether this sensitization also occurs in the context of chemotherapeutic agents, several HNSCC cell lines were tested for their responses to combination treatments.
The extracellular domain of human TRAIL was cloned into a pTriEx expression plasmid containing N-terminal Hisx6 tag. His-TRAIL was expressed in the E. coli BL-21 pLys strain and purified as previously described. […] All experiments were repeated at least three times (three biological replicates, carried out on different days), with each experimental group measured in triplicate within each of these individual experiments. […]

## O=C(O)C1Cc2[nH]cnc2CN1 (stereo not drawn) [Compound 5, 4,5,6,7-Tetrahydro-1H-imidazo(4,5-c)pyridine-6-carboxylic acid]
[1]
  response of HPV- HNSCC cell line #84 to TRAIL (in words): resistant
[2]
  toxicity to SiHa cells in the absence of TRAIL (in words): low toxicity
[3]
  response of HPV- HNSCC cell line #84 to doxorubicin (in words): resistant

## O=c1c(O)c(-c2cc(O)c(O)c(O)c2)oc2cc(O)cc(O)c12 [Myricetin, reference compound]
[1]
  response of HPV- HNSCC cell line #84 to TRAIL (in words): resistant
[2]
  toxicity to SiHa cells in the absence of TRAIL (in words): low toxicity
[3]
  response of HPV- HNSCC cell line #84 to doxorubicin (in words): resistant
